# Results published in ChEMBL document CHEMBL1201862, “PubChem BioAssay data set” (2004).
#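 Results reflect a 48-hour exposure of cells in 96-well plates to compound at five concentrations. Abbreviation: GI50, concentration required for 50% inhibition of growth.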 The source made the active and inactive calls. No stated cut-off is given here; in the data, active = GI50 up to about 1.1 µM and inactive = higher.
# Columns and labels:
# Test in all cases: inhibition of tumour cell growth, NCI panel, 48 h
# COLO 205 = system: COLO 205
# UO-31 = system: UO-31
# Malme-3M = system: Malme-3M
# SK-MEL-28 = system: SK-MEL-28
# HCT-15 = system: HCT-15
# EKVX = system: EKVX
# MCF7 = system: MCF7
# SW-620 = system: SW-620
# DU-145 = system: DU-145
# NCI-H23 = system: NCI-H23
# PC-3 = system: PC-3
# SK-MEL-5 = system: SK-MEL-5
# OVCAR-3 = system: OVCAR-3
# KM12 = system: KM12
# A498 = system: A498
# SK-OV-3 = system: SK-OV-3
# OVCAR-8 = system: OVCAR-8
# MOLT-4 = system: MOLT-4
# SN12C = system: SN12C
# OVCAR-4 = system: OVCAR-4
SMILES,GI50 (COLO 205),GI50 (UO-31),GI50 (Malme-3M),GI50 (SK-MEL-28),GI50 (HCT-15) [µM],GI50 (EKVX),GI50 (MCF7),GI50 (SW-620),GI50 (DU-145),GI50 (NCI-H23),GI50 (PC-3),GI50 (SK-MEL-5),GI50 (OVCAR-3),GI50 (KM12),GI50 (A498),GI50 (SK-OV-3),GI50 (OVCAR-8),GI50 (MOLT-4),GI50 (SN12C),GI50 (OVCAR-4)
CCn1c(-c2ccc(C)cc2)cs/c1=N\C(P(=O)(O)O)P(=O)(O)O,> 100 µM (inactive),> 100 µM (inactive),> 100 µM (inactive),> 100 µM (inactive),> 100,> 100 µM (inactive),> 100 µM (inactive),> 100 µM (inactive),> 100 µM (inactive),> 100 µM (inactive),> 100 µM (inactive),31.6 µM (inactive),> 100 µM (inactive),> 100 µM (inactive),> 100 µM (inactive),> 100 µM (inactive),> 100 µM (inactive),> 100 µM (inactive),–,–
CCc1nc(N)nc(N)c1-c1ccc(Cl)c(Cl)c1 [ETOPRINE],8.43 µM (inactive),2.52 µM (inactive),5.79 µM (inactive),> 100 µM (inactive),3.75,20.9 µM (inactive),3.05 µM (inactive),5.32 µM (inactive),11 µM (inactive),2.74 µM (inactive),34.5 µM (inactive),4.65 µM (inactive),24.9 µM (inactive),8.51 µM (inactive),> 100 µM (inactive),> 100 µM (inactive),–,–,6.79 µM (inactive),> 100 µM (inactive)
Cc1n[nH]c(C(F)(F)F)c1/N=N/N(C)C,2.98 µM (inactive),1.61 µM (inactive),16.6 µM (inactive),17.9 µM (inactive),7.26,2.25 µM (inactive),3.5 µM (inactive),> 100 µM (inactive),7.69 µM (inactive),5.73 µM (inactive),11.1 µM (inactive),> 100 µM (inactive),5.16 µM (inactive),7.57 µM (inactive),> 100 µM (inactive),12.5 µM (inactive),11.1 µM (inactive),2.48 µM (inactive),12.5 µM (inactive),–
Cc1ccc(C(=O)Cn2c(C(=O)/C=C/c3cccs3)nc3ccccc32)cc1,41.1 µM (inactive),62.8 µM (inactive),24.5 µM (inactive),68.5 µM (inactive),31.3,–,29.6 µM (inactive),34.2 µM (inactive),82 µM (inactive),29.9 µM (inactive),28.6 µM (inactive),36.1 µM (inactive),31.3 µM (inactive),24.2 µM (inactive),32.1 µM (inactive),> 100 µM (inactive),–,–,32.9 µM (inactive),29.5 µM (inactive)
COC(=O)c1c(O)ccc2c1c1c(n2Cc2ccccn2)C(=O)c2ccccc2C1=O,14.5 µM (inactive),87.9 µM (inactive),31.2 µM (inactive),19.2 µM (inactive),46,36.7 µM (inactive),54.1 µM (inactive),–,42.4 µM (inactive),57.1 µM (inactive),58.7 µM (inactive),50.5 µM (inactive),18.1 µM (inactive),46.2 µM (inactive),> 100 µM (inactive),21.7 µM (inactive),50.4 µM (inactive),94.8 µM (inactive),> 100 µM (inactive),–
Nc1nc2cc(Cl)ccc2n1N,> 100 µM (inactive),> 100 µM (inactive),> 100 µM (inactive),> 100 µM (inactive),> 100,> 100 µM (inactive),> 100 µM (inactive),> 100 µM (inactive),> 100 µM (inactive),> 100 µM (inactive),> 100 µM (inactive),> 100 µM (inactive),–,> 100 µM (inactive),> 100 µM (inactive),33.8 µM (inactive),> 100 µM (inactive),> 100 µM (inactive),> 100 µM (inactive),–
